Earlier results, collected in US8426341B2, “Herbicide formulation” (priority 2005, dated 2013).

Conditions: for pKas (single or first listed value): acid form / neutral form equilibrium, exemplary values; for pKas (second listed value): second value for compounds with more than one acidic hydrogen

Row | Compound | pKas (single or first listed value) | pKas (second listed value)
1 | O=C(O)CCCOc1ccc(Cl)cc1Cl [2,4-DB] | 4.8 | –
2 | O=C(O)c1cc(Oc2ccc(C(F)(F)F)cc2Cl)ccc1[N+](=O)[O-] [Acifluorfen] | 3.86 | –
3 | CC(C)N1C(=O)c2ccccc2NS1(=O)=O [Bentazon] | 3.30 | –
4 | N#Cc1cc(Br)c(O)c(Br)c1 [Bromoxynil] | 4.06 | –
5 | COc1c(Cl)ccc(Cl)c1C(=O)O [Dicamba, 3,6-dichloro-O-anisic acid] | 1.87 | –
6 | CC(Oc1ccc(Oc2ccc(Cl)cc2Cl)cc1)C(=O)O (centres unmarked) [Diclofop] | 3.57 | –
7 | C[C@@H](Oc1ccc(Oc2ccc(C(F)(F)F)cn2)cc1)C(=O)O [Fluazifop-p] | 2.98 | –
8 | CP(=O)(O)CCC(N)C(=O)O (centres unmarked) [Glufosinate] | 2 | 2.9
9 | CC(Oc1ccc(Oc2ncc(C(F)(F)F)cc2Cl)cc1)C(=O)O (centres unmarked) [Haloxyfop] | 2.9 | –
10 | CC(C)C1(C)N=C(c2nc3ccccc3cc2C(=O)O)NC1=O (centres unmarked) [Imazaquin] | 3.8 | –
11 | Nc1c(Cl)c(Cl)nc(C(=O)O)c1Cl [Picloram] | 2.3 | –
12 | O=C(O)c1c(Cl)ccc2cc(Cl)cnc12 [Quinclorac] | 4.34 | –
13 | C[C@@H](Oc1ccc(Oc2cnc3cc(Cl)ccc3n2)cc1)C(=O)O [Quizalofop-p] | 1.25 | –
14 | O=C(O)COc1nc(Cl)c(Cl)cc1Cl [Triclopyr, 3,5,6-trichloro-2-pyridyloxyacetic acid] | 2.68 | 3.97
15 | Imazamethbenz | 2.9 | –
